Laboratory results from patent publication US20200255438A1, “NOVEL SALTS” (priority 2017, published 2020).

How the values were obtained:
[1] = Aqueous solubility (equilibration in de-ionised water, HPLC); assay type: physicochemical; settings: for Form retention of solids after solubility equilibration (XRPD): 24 hours in de-ionised water, solids dried at 50° C., re-analysed by XRPD; for solubility at 24 h: de-ionised water, water, thermodynamic from solid, 25° C.
Description: […] Solids were isolated by filtration to deliver clear liquors that were analyzed for API content by HPLC vs a known standard of free base (typical dilution of 50× using deionized water for salt candidates to deliver a working concentration in line with the standard at 0.5 mg/ml). The solids were dried at 50° C. and re-analysed by XRPD to confirm form retention—both mesylate and citrate retain form.

[2] = Solid form stability under extremes of humidity (XRPD post DVS/GVS); assay type: physicochemical; settings: 0% RH and 90% RH, XRPD vs input
Source text: FIG. 1: XRPD patterns of citrate salt (Example 1), Ex-DVS examination at 0% RH, (top panel), 90% RH, (middle panel) and input (bottom panel).
FIG. 3: XRPD data for mesylate salt (Example 2) exposed to extremes of humidity post GVS cycle: input (bottom panel) output 0% (top panel) output 90% (middle panel).
X-Ray Powder Diffraction (XRPD)
X-Ray Powder Diffraction patterns were collected on a PANalytical diffractometer using Cu Kα radiation (45 kV, 40 mA), θ−θ goniometer, focusing mirror, divergence slit (½″), soller slits at both incident and divergent beam (4 mm) and a PIXcel detector. The software used for data collection was X'Pert Data Collector, version 2.2f and the data was presented using X'Pert Data Viewer, version 1.2d.
XRPD patterns were acquired under ambient conditions via a transmission foil sample stage (polyimide—Kapton, 12.7 μm thickness film) under ambient conditions using a PANalytical X'Pert PRO. The data collection range was 2.994-35°2θ with a continuous scan speed of 0.202004°s^−1.

Form retention of solids after solubility equilibration (XRPD) [1] | solubility at 24 h [1] [mg/mL] | Crystalline form stability / hydrate formation under different extremes of humidity (XRPD) [2] | SMILES
retain form | 22 | no tendency to form hydrates | Cc1cc(-c2ccc(C(F)(F)F)cc2)nc([C@H]2CC[C@@]3(CCN(C)C3=O)N2)n1.O=C(O)CC(O)(CC(=O)O)C(=O)O [Example 1, (2R,5S)-7-Methyl-2-[4-methyl-6-[4-(trifluoromethyl)-phenyl]pyrimidin-2-yl]-1,7-diazaspiro[4.4]nonan-6-one citric acid (citrate) salt]
retain form | 65 | no tendency to form hydrates | CS(=O)(=O)O.Cc1cc(-c2ccc(C(F)(F)F)cc2)nc([C@H]2CC[C@@]3(CCN(C)C3=O)N2)n1 [Example 2, (2R,5S)-7-Methyl-2-[4-methyl-6-[4-(trifluoromethyl)-phenyl]pyrimidin-2-yl]-1,7-diazaspiro[4.4]nonan-6-one methanesulfonic acid (mesylate) salt]
